Consider 23 molecules from patent US10544147B2, “Purine inhibitors of human phosphatidylinositol 3-kinase delta” (MERCK SHARP & DOHME CORP., priority 2016, dated 2020).

Molecules are shown by their SMILES. pIC50: −log10 of the molar value.

In assay [1] the target is PI3Kdelta (Homo sapiens (Human), UniProt O00329). Nature of the assay: HTRF PI3K biochemical assay, delta isoform. To be noted: 0.3 nM enzyme, 100 uM ATP, 50 uM PIP2; form screened (neutral or TFA salt). On the technique in general: In TR-FRET formats the signal depends on donor and acceptor labels being close together.
The target in assay [2] is PI3Kalpha (Homo sapiens (Human), UniProt P42336). The assay can be described thus: HTRF PI3K biochemical assay, alpha isoform (selectivity versus delta). Particulars: ratio PI3K-alpha IC50 value/PI3K-delta IC50 value.
Sequence of PI3Kalpha (P42336 whole entry, canonical isoform): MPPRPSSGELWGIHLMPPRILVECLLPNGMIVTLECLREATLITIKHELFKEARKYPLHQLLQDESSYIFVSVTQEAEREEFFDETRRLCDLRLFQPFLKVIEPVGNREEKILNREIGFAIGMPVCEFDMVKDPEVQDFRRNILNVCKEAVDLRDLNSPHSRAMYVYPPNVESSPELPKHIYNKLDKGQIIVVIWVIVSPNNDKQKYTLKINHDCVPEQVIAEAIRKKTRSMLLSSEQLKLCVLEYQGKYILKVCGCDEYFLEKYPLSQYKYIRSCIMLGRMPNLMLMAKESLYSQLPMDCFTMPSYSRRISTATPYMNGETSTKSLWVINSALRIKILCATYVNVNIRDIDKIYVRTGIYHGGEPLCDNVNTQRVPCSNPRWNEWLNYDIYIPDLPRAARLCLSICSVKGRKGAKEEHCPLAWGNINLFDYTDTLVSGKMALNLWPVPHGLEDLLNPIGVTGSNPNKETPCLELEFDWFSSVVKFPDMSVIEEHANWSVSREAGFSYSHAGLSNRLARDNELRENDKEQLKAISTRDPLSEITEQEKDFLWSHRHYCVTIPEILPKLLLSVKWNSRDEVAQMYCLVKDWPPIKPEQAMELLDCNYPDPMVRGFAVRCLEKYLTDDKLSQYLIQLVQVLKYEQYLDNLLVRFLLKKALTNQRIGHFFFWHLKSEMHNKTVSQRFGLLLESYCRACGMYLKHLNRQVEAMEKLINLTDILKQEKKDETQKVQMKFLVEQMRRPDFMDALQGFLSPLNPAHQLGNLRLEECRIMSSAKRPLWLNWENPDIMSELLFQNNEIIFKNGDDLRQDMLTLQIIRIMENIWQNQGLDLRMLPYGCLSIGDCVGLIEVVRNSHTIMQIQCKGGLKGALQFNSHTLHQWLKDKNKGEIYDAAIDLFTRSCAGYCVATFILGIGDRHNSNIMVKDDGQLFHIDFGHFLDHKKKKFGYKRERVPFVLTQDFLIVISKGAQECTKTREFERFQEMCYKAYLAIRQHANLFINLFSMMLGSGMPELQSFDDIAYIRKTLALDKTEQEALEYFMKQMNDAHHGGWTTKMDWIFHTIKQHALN
Sequence of PI3Kalpha (P27986 whole entry partner, canonical isoform): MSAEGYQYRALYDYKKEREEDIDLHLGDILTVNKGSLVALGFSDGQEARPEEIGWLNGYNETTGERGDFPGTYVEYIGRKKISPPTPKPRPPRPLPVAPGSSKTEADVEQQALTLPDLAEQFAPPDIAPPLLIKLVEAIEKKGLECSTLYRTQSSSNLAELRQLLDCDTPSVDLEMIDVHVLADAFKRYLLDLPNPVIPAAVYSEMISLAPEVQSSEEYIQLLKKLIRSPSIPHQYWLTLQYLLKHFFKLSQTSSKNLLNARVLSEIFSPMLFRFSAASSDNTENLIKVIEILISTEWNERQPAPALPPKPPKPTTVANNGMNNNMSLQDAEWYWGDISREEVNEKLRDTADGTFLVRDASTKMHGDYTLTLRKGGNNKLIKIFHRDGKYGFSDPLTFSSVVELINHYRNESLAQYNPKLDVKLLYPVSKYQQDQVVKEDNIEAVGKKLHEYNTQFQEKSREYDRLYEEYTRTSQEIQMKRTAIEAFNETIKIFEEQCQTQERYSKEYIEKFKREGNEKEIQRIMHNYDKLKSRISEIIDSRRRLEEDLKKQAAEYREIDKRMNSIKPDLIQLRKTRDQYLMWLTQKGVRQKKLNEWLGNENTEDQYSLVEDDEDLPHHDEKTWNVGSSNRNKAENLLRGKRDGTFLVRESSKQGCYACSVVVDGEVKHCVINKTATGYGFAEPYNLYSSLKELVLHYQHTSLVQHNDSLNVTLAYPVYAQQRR

Sequence of PI3Kdelta (O00329 whole entry, canonical isoform): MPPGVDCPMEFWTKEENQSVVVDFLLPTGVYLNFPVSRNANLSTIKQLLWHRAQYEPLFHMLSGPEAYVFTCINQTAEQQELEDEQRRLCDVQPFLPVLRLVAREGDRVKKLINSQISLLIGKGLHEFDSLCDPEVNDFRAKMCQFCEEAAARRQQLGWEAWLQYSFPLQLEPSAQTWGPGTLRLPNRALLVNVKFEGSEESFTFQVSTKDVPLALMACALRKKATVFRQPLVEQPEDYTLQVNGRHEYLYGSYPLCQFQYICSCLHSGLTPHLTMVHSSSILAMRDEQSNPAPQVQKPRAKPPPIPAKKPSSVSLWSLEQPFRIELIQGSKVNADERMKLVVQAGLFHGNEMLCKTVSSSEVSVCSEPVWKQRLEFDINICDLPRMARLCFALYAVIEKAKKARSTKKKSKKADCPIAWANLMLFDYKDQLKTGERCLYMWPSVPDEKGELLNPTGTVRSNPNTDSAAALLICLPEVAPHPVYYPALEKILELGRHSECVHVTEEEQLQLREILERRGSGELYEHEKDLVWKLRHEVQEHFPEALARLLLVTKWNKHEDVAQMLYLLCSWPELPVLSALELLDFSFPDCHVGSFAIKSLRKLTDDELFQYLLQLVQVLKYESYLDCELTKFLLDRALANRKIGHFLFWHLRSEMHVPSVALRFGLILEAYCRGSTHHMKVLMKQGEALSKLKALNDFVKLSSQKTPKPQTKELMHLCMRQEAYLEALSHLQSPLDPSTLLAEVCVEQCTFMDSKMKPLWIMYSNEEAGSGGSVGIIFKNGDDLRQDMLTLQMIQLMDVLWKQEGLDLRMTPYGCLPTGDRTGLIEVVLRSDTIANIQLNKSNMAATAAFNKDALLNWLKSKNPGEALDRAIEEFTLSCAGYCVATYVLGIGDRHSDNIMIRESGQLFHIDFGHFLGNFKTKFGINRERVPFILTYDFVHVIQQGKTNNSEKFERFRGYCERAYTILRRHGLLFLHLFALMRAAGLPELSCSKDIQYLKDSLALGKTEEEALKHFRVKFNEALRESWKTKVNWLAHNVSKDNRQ
Sequence of PI3Kdelta (P27986 whole entry partner, canonical isoform): as the sequence (P27986 whole entry partner, canonical isoform) above

Consider `CCn1c(-c2cnc(C)nc2)nc2c(-c3cnc4c(c3)C(C)(CC3CC3)C(=O)N4)ncnc21` (single isomer, unassigned) [Compound 1-14, (R or S)-3-(cyclopropylmethyl)-5-(9-ethyl-S-(2-methylpyrimidin-5-yl)-9H-purin-6-yl)-3-methyl-1,3-dihydro-2H-pyrrolo[2,3-b]pyridin-2-one], for which the pIC50 in assay [1] was 7.80. In addition, the “Relative Selectivity versus PI3Kalpha” value in assay [2] is reported as above 10.

For `CCn1c(-c2cnc(C)nc2)nc2c(-c3ccc4c(c3)C(C)(NC3CCOCC3)C(=O)N4)ncnc21` (racemic) [Compound 2-25, (R and S)-5-[9-ethyl-8-(2-methylpyrimidin-5-yl)-9H-purin-6-yl]-3-methyl-3-(tetrahydro-2H-pyran-4-ylamino)-1,3-dihydro-2H-indol-2-one], the negative-log IC50 (pIC50) in assay [1] is 7.55. Further, in assay [2], the “Relative Selectivity versus PI3Kalpha” value is reported as above 10.

Take `CCn1c(-c2cnc(C)nc2)nc2c(-c3ccc4c(c3)C(C)(N[C@@H](C)C3CC3)C(=O)N4)ncnc21` (single isomer, unassigned) [Compound 2-12, 3-{[(1S)-1-cyclopropylethyl]amino}-5-[9-ethyl-8-(2-methylpyrimidin-5-yl)-9H-purin-6-yl]-3(R or S)-methyl-1,3-dihydro-2H-indol-2-one]: the pIC50 in assay [1] is 8.30. In assay [2], the “Relative Selectivity versus PI3Kalpha” value is above 10.

Regarding `Cc1ncc(-c2nc3c(-c4ccc5c(c4)C4(CCCN4C(=O)C4CC4)C(=O)N5CCO)ncnc3n2C)cn1` (single isomer, unassigned) [Compound 3-18, (R or S)-1′-(cyclopropanecarbonyl)-1-(2-hydroxyethyl)-5-(9-methyl-8-(2-methylpyrimidin-5-yl)-9H-purin-6-yl)spiro[indoline-3,2′-pyrrolidin]-2-one], in assay [1], the pIC50 is 8.72. The “Relative Selectivity versus PI3Kalpha” value in assay [2] is recorded as above 10.

For the molecule `CCn1c(-c2cnc(C)nc2)nc2c(-c3ccc4c(c3)C(C)(NCC(C)C)C(=O)N4)ncnc21` (single isomer, unassigned) [Compound 2-65, (R or S)-5-(9-ethyl-8-(2-methylpyrimidin-5-yl)-9H-purin-6-yl)-3-(isobutylamino)-3-methylindolin-2-one], in assay [1], the pIC50 was 7.10. The “Relative Selectivity versus PI3Kalpha” value in assay [2] was above 10.

As to `CCn1c(-c2cnc(C)nc2)nc2c(-c3ccc4c(c3)C(C)(CC)C(=O)N4)ncnc21` (single isomer, unassigned) [Compound 1-39, (R or S)-3-ethyl-5-(9-ethyl-8-(2-methylpyrimidin-5-yl)-9H-purin-6-yl)-3-methylindolin-2-one], the pIC50 in assay [1] is 7.07. For the same molecule, in assay [2], the “Relative Selectivity versus PI3Kalpha” value is reported as above 10.

On to `CCn1c(-c2cnc(C)nc2)nc2c(-c3ccc4c(c3)C3(CCCO3)C(=O)N4)ncnc21` (single isomer, unassigned) [Compound 3-31, (R or S)-5′-(9-ethyl-8-(2-methylpyrimidin-5-yl)-9H-purin-6-yl)-4,5-dihydro-3H-spiro[furan-2,3′-indolin]-2′-one], for which the pIC50 in assay [1] is 7.00. The “Relative Selectivity versus PI3Kalpha” value in assay [2] is above 10.

On to `CCn1c(-c2cnc(C)nc2)nc2c(-c3ccc4c(c3)C(C)(N3CCC5OCCC53)C(=O)N4)ncnc21` (racemic) [Compound 2-10, (R and S)-5-[9-ethyl-8-(2-methylpyrimidin-5-yl)-9H-purin-6-yl]-3-(hexahydro-4H-furo[3,2-b]pyrrol-4-yl)-3-methyl-1,3-dihydro-2H-indol-2-one], for which the pIC50 in assay [1] is 7.85. The “Relative Selectivity versus PI3Kalpha” value in assay [2] is given as above 10.

Regarding `CCn1c(-c2cnc(C)nc2)nc2c(-c3ccc4c(c3)C3(CCN(C(C)C)C3)C(=O)N4)ncnc21` (single isomer, unassigned) [Compound 3-35, (R or S)-5-(9-ethyl-8-(2-methylpyrimidin-5-yl)-9H-purin-6-yl)-1′-isopropylspiro[indoline-3,3′-pyrrolidin]-2-one], the pIC50 in assay [1] is 7.85. Also, the “Relative Selectivity versus PI3Kalpha” value in assay [2] is reported as above 10.

Take `CCN1CCCC12C(=O)Nc1ccc(-c3ncnc4c3nc(-c3cnc(C)nc3)n4C)cc12` (single isomer, unassigned) [Compound 3-29, (R or S)-1′-ethyl-5-(9-methyl-8-(2-methylpyrimidin-5-yl)-9H-purin-6-yl)spiro[indoline-3,2′-pyrrolidin]-2-one]: the pIC50 in assay [1] is 7.82. Further, the “Relative Selectivity versus PI3Kalpha” value in assay [2] is on record as above 10.

In the case of `CCn1c(-c2cnc(C)nc2)nc2c(-c3ccc4c(c3)C(C)(C3CCOCC3)C(=O)N4)ncnc21` (single isomer, unassigned) [Compound 1-34, 5-(9-Ethyl-8-(2-methylpyrimidin-5-yl)-9H-purin-6-yl)-3-methyl-3-(tetrahydro-2H-pyran-4-yl)indolin-2-one], the pIC50 in assay [1] was 7.32. For the same molecule, the “Relative Selectivity versus PI3Kalpha” value in assay [2] came out at 8.

As for `CCn1c(C(F)F)nc2c(-c3ccc4c(c3)C(C)(Cc3ccccc3)C(=O)N4)ncnc21` (single isomer, unassigned) [Compound 1-24, (R or S)-benzyl-5-(8-(difluoromethyl)-9-ethyl-9H-purin-6-yl)-3-methylindolin-2-one], the pIC50 in assay [1] is 6.18. Further, the “Relative Selectivity versus PI3Kalpha” value in assay [2] is above 10.

`CCn1c(-c2cnc(C)nc2)nc2c(-c3ccc4c(c3)C(C)(N(C)C(C)C)C(=O)N4)ncnc21` (racemic) [Compound 2-15, (R and S)-5-[9-ethyl-8-(2-methylpyrimidin-5-yl)-9H-purin-6-yl]-3-methyl-3-[methyl(1-methylethyl)amino]-1,3-dihydro-2H-indol-2-one]: in assay [1], the pIC50 was 7.34. Moreover, the “Relative Selectivity versus PI3Kalpha” value in assay [2] is above 10.

Consider `CCn1c(-c2cnc(C)nc2)nc2c(-c3ccc4c(c3)C(C)(NCC3(C)CCC3)C(=O)N4)ncnc21` (racemic) [Compound 2-18, (R and S)-5-[9-ethyl-8-(2-methylpyrimidin-5-yl)-9H-purin-6-yl]-3-methyl-3-{[(1-methylcyclobutyl)methyl]amino}-1,3-dihydro-2H-indol-2-one], for which the pIC50 in assay [1] is 8.10. Besides, in assay [2], the “Relative Selectivity versus PI3Kalpha” value is above 10.

Turning to `CCn1c(-c2cnc(C)nc2)nc2c(-c3ccc4oc(=O)n(C(C)C5CC5)c4c3)ncnc21` (single isomer, unassigned) [Compound 5-5, (R or S)-3-(1-cyclopropylethyl)-5-[9-ethyl-8-(2-methylpyrimidin-5-yl)-9H-purin-6-yl]-1,3-benzoxazol-2(3H)-one], the pIC50 in assay [1] is 7.38. Further, the “Relative Selectivity versus PI3Kalpha” value in assay [2] was above 10.

For the molecule `CCn1c(-c2cnc(C)nc2)nc2c(-c3ccc4c(c3)C(C)(N3CC(C)(F)C3)C(=O)N4)ncnc21` (single isomer, unassigned) [Compound 2-64, (R or S)-5-(9-ethyl-8-(2-methylpyrimidin-5-yl)-9H-purin-6-yl)-3-(3-fluoro-3-methylazetidin-1-yl)-3-methylindolin-2-one], the pIC50 in assay [1] is 8.22. Further, the “Relative Selectivity versus PI3Kalpha” value in assay [2] was above 10.

In the case of `CCn1c(-c2cnc(C)nc2)nc2c(-c3ccc4c(c3)C(C)(NCCOC)C(=O)N4)ncnc21` (racemic) [Compound 2-16, (R and S)-5-[9-ethyl-8-(2-methylpyrimidin-5-yl)-9H-purin-6-yl]-3-[(2-methoxyethyl)amino]-3-methyl-1,3-dihydro-2H-indol-2-one], the pIC50 in assay [1] is 7.37. Besides, the “Relative Selectivity versus PI3Kalpha” value in assay [2] is reported as above 10.

In the case of `CCn1c(-c2cnc(C)nc2)nc2c(-c3ccc4c(c3)C(C)(CC(C)(C)O)C(=O)N4)ncnc21` (single isomer, unassigned) [Compound 1-41, 5-(9-Ethyl-8-(2-methylpyrimidin-5-yl)-9H-purin-6-yl)-3-(2-hydroxy-2-methylpropyl)-3-methylindolin-2-one], the pIC50 in assay [1] was 7.64. The “Relative Selectivity versus PI3Kalpha” value in assay [2] was above 10.

In the case of `CCn1c(-c2cnc(C)nc2)nc2c(-c3ccc4c(c3)C(C)(NC(C)C)C(=O)N4)ncnc21` (single isomer, unassigned) [Compound 2-32, (R or S)-5-[9-ethyl-8-(2-methylpyrimidin-5-yl)-9H-purin-6-yl]-3-methyl-3-[(1-methylethyl)amino]-1,3-dihydro-2H-indol-2-one], the pIC50 in assay [1] was 7.57. The “Relative Selectivity versus PI3Kalpha” value in assay [2] is reported as above 10.

With `CCn1c(-c2cnc(C)nc2)nc2c(-c3ccc4c(c3)C(C)(NCC3(F)COC3)C(=O)N4)ncnc21` (single isomer, unassigned) [Compound 2-71, (R or S)-5-(9-ethyl-8-(2-methylpyrimidin-5-yl)-9H-purin-6-yl)-3-(((3-fluorooxetan-3-yl)methyl)amino)-3-methylindolin-2-one], the pIC50 in assay [1] was 6.66. For the same molecule, in assay [2], the “Relative Selectivity versus PI3Kalpha” value is above 10.

`Cc1ncc(-c2nc3c(-c4ccc5c(c4)C4(CCCN4C(C)C)C(=O)N5)ncnc3n2C)cn1` (single isomer, unassigned) [Compound 3-14, (R or S)-1′-isopropyl-5-(9-methyl-8-(2-methylpyrimidin-5-yl)-9H-purin-6-yl)spiro[indoline-3,2′-pyrrolidin]-2-one]: in assay [1], the pIC50 was 8.70. Besides, the “Relative Selectivity versus PI3Kalpha” value in assay [2] was above 10.

Turning to `Cc1ncc(-c2nc3c(-c4ccc5c(c4)C(C)(NCC(C)(C)F)C(=O)N5)ncnc3n2C)cn1` (single isomer, unassigned) [Compound 2-67, (R or S)-3-((2-fluoro-2-methylpropyl)amino)-3-methyl-5-(9-methyl-8-(2-methylpyrimidin-5-yl)-9H-purin-6-yl)indolin-2-one], the pIC50 in assay [1] was 6.46. Moreover, the “Relative Selectivity versus PI3Kalpha” value in assay [2] is above 10.

Take `CCn1c(-c2cnc(C)nc2)nc2c(-c3ccc4c(c3)C(C)(NC[C@@H]3CCCO3)C(=O)N4)ncnc21` (mixture of isomers) [Compound 2-21, 5-[9-ethyl-8-(2-methylpyrimidin-5-yl)-9H-purin-6-yl]-3(R and S)-methyl-3-{[(2S)-tetrahydrofuran-2-ylmethyl]amino}-1,3-dihydro-2H-indol-2-one]: the pIC50 in assay [1] was 7.66. The “Relative Selectivity versus PI3Kalpha” value in assay [2] is recorded as above 10.

In general, pIC50 refers to −log10 of the IC50, conventionally taken in molar units.
